Experimental data published in ChEMBL document CHEMBL1275440, “In vitro activity of telavancin against resistant gram-positive bacteria” (2008).
Calls of active or inactive are those of the source.

Legend:
[1] = Antibacterial activity against methicillin resistant coagulase-negative Staphylococcus hominis subsp. novobiosepticus clinical isolate assessed as susceptibility level by broth microdilution method; type: functional
[2] = test system: Enterococcus faecium; assay: Antibacterial activity against vancomycin resistant Enterococcus faecium VanB clinical isolate assessed as susceptibility level by broth microdilution method; type: functional
[3] = test system: Staphylococcus saprophyticus; assay: Antibacterial activity against methicillin resistant coagulase-negative Staphylococcus saprophyticus clinical isolate by broth microdilution method; type: functional
[4] = test system: Staphylococcus saprophyticus; assay: Antibacterial activity against methicillin resistant coagulase-negative Staphylococcus saprophyticus clinical isolate assessed as susceptibility level by broth microdilution method; type: functional
[5] = test system: Staphylococcus capitis; assay: Antibacterial activity against methicillin resistant coagulase-negative Staphylococcus capitis clinical isolate by broth microdilution method; type: functional
[6] = test system: Staphylococcus haemolyticus; assay: Antibacterial activity against methicillin resistant coagulase-negative Staphylococcus haemolyticus clinical isolate by broth microdilution method; type: functional
[7] = test system: Enterococcus faecium; assay: Antibacterial activity against vancomycin resistant Enterococcus faecium VanA clinical isolate assessed as susceptibility level by broth microdilution method; type: functional
[8] = test system: Staphylococcus capitis; assay: Antibacterial activity against methicillin resistant coagulase-negative Staphylococcus capitis clinical isolate assessed as susceptibility level by broth microdilution method; type: functional
[9] = test system: Enterococcus faecalis; assay: Antibacterial activity against vancomycin resistant Enterococcus faecalis VanA clinical isolate assessed as susceptibility level by broth microdilution method; type: functional
[10] = test system: Staphylococcus aureus; assay: Antibacterial activity against methicillin resistant Staphylococcus aureus clinical isolate assessed as susceptibility level by broth microdilution method; type: functional
[11] = test system: Staphylococcus auricularis; assay: Antibacterial activity against methicillin resistant coagulase-negative Staphylococcus auricularis clinical isolate by broth microdilution method; type: functional
[12] = Antibacterial activity against methicillin resistant coagulase-negative Staphylococcus hominis subsp. novobiosepticus clinical isolate by broth microdilution method; type: functional
[13] = test system: Staphylococcus aureus; assay: Antibacterial activity against methicillin resistant Staphylococcus aureus clinical isolate by broth microdilution method; type: functional; details: for MIC50 / MIC90: Staphylococcus aureus
[14] = test system: Enterococcus faecium; assay: Antibacterial activity against vancomycin resistant Enterococcus faecium VanA clinical isolate by broth microdilution method; type: functional
[15] = test system: Staphylococcus haemolyticus; assay: Antibacterial activity against methicillin resistant coagulase-negative Staphylococcus haemolyticus clinical isolate assessed as susceptibility level by broth microdilution method; type: functional
[16] = test system: Staphylococcus epidermidis; assay: Antibacterial activity against methicillin resistant Staphylococcus epidermidis clinical isolate assessed as susceptibility level by broth microdilution method; type: functional
[17] = test system: Enterococcus faecalis; assay: Antibacterial activity against vancomycin resistant Enterococcus faecalis VanA clinical isolate by broth microdilution method; type: functional
[18] = test system: Enterococcus faecalis; assay: Antibacterial activity against vancomycin resistant Enterococcus faecalis VanB clinical isolate assessed as susceptibility level by broth microdilution method; type: functional
[19] = test system: Staphylococcus auricularis; assay: Antibacterial activity against methicillin resistant coagulase-negative Staphylococcus auricularis clinical isolate assessed as susceptibility level by broth microdilution method; type: functional
[20] = test system: Enterococcus faecalis
[21] = test system: Enterococcus faecalis; assay: Antibacterial activity against vancomycin resistant Enterococcus faecalis VanB clinical isolate by broth microdilution method; type: functional
[22] = test system: Enterococcus faecium; assay: Antibacterial activity against vancomycin resistant Enterococcus faecium VanB clinical isolate by broth microdilution method; type: functional
[23] = test system: Staphylococcus epidermidis; assay: Antibacterial activity against methicillin resistant Staphylococcus epidermidis clinical isolate by broth microdilution method; type: functional
[24] = test system: Streptococcus mitis; assay: Antibacterial activity against Streptococcus mitis clinical isolate assessed as susceptibility level by broth microdilution method; type: functional
[25] = test system: Streptococcus viridans; assay: Antibacterial activity against Streptococcus viridans clinical isolate assessed as susceptibility level by broth microdilution method; type: functional
[26] = test system: Streptococcus constellatus; assay: Antibacterial activity against Streptococcus constellatus clinical isolate by broth microdilution method; type: functional
[27] = test system: Streptococcus pyogenes; assay: Antibacterial activity against Streptococcus pyogenes group A clinical isolate by broth microdilution method; type: functional
[28] = test system: Streptococcus viridans; assay: Antibacterial activity against Streptococcus viridans clinical isolate by broth microdilution method; type: functional
[29] = test system: Streptococcus mitis; assay: Antibacterial activity against Streptococcus mitis clinical isolate by broth microdilution method; type: functional
[30] = test system: Streptococcus constellatus; assay: Antibacterial activity against Streptococcus constellatus clinical isolate assessed as susceptibility level by broth microdilution method; type: functional
[31] = test system: Streptococcus agalactiae; assay: Antibacterial activity against Streptococcus agalactiae group B clinical isolate assessed as susceptibility level by broth microdilution method; type: functional
[32] = test system: Streptococcus oralis; assay: Antibacterial activity against Streptococcus oralis clinical isolate by broth microdilution method; type: functional
[33] = test system: Streptococcus intermedius; assay: Antibacterial activity against Streptococcus intermedius clinical isolate by broth microdilution method; type: functional
[34] = test system: Streptococcus pyogenes; assay: Antibacterial activity against Streptococcus pyogenes group A clinical isolate assessed as susceptibility level by broth microdilution method; type: functional
[35] = test system: Streptococcus pneumoniae; assay: Antibacterial activity against multidrug-resistant Streptococcus pneumoniae clinical isolate by broth microdilution method; type: functional
[36] = test system: Streptococcus oralis; assay: Antibacterial activity against Streptococcus oralis clinical isolate assessed as susceptibility level by broth microdilution method; type: functional
[37] = test system: Streptococcus pneumoniae; assay: Antibacterial activity against penicillin intermediate Streptococcus pneumoniae clinical isolate by broth microdilution method; type: functional
[38] = test system: Streptococcus intermedius; assay: Antibacterial activity against Streptococcus intermedius clinical isolate assessed as susceptibility level by broth microdilution method; type: functional
[39] = test system: Streptococcus agalactiae; assay: Antibacterial activity against Streptococcus agalactiae group B clinical isolate by broth microdilution method; type: functional
[40] = test system: Streptococcus pneumoniae; assay: Antibacterial activity against penicillin resistant Streptococcus pneumoniae clinical isolate by broth microdilution method; type: functional

CC(=O)N[C@@H]1[C@H](Oc2c3cc4cc2Oc2ccc(cc2Cl)[C@@H](O[C@@H]2O[C@@H](CO)[C@@H](O)[C@H](O)[C@@H]2NC(C)=O)[C@@H]2NC(=O)[C@H](NC(=O)[C@@H]4NC(=O)[C@H]4NC(=O)[C@@H](Cc5ccc(c(Cl)c5)O3)NC(=O)[C@H](N)c3ccc(O)c(c3)Oc3cc(O)cc4c3)c3ccc(O)c(c3)-c3c(O[C@H]4O[C@H](CO)[C@@H](O)[C@@H](O)[C@@H]4O)cc(O)cc3[C@@H](C(=O)O)NC2=O)O[C@@H](CO)[C@@H](O)[C@@H]1O
> 128 µg/mL: MIC90 [14] | MIC90 [17]
inactive: MIC50 [20] | MIC90 [20]
0%: Activity [7] | Percent of isolates susceptible [9]
64 µg/mL: MIC50 [14] | MIC50 [17]
0.5 µg/mL: MIC50 [13] | MIC [21] | MIC50 [22]
8 µg/mL: MIC50 [23]
100%: Activity [2] | Activity [18]
81%: Activity [16]
32 µg/mL: MIC90 [3] | MIC90 [5] | MIC90 [6] | MIC90 [11] | MIC90 [12]
16 µg/mL: MIC90 [23]
88%: Activity [1] | Activity [4] | Activity [8] | Activity [15] | Activity [19]
4 µg/mL: MIC50 [3] | MIC50 [5] | MIC50 [6] | MIC50 [11] | MIC50 [12]
32%: Activity [10] | Activity [13]
1 µg/mL: MIC90 [13] | MIC90 [22]

CCCCCCCCCC(=O)N[C@@H](Cc1c[nH]c2ccccc12)C(=O)N[C@H](CC(N)=O)C(=O)N[C@@H](CC(=O)O)C(=O)N[C@@H]1C(=O)NCC(=O)N[C@@H](CCCN)C(=O)N[C@@H](CC(=O)O)C(=O)N[C@H](C)C(=O)N[C@@H](CC(=O)O)C(=O)NCC(=O)N[C@H](CO)C(=O)N[C@@H]([C@H](C)CC(=O)O)C(=O)N[C@@H](CC(=O)c2ccccc2N)C(=O)O[C@@H]1C
100%: Activity [1] | Activity [24] | Activity [25] | Activity [4] | Activity [8] | Percent of isolates susceptible [9] | Activity [30] | Activity [31] | Activity [15] | Activity [16] | Activity [18] | Activity [34] | Activity [36] | Activity [38] | Activity [19]
≤ 0.03 µg/mL: MIC [27] | MIC50 [27]
0.25 µg/mL: MIC50 [3] | MIC [26] | MIC90 [27] | MIC50 [5] | MIC50 [6] | MIC [28] | MIC [29] | MIC50 [11] | MIC50 [12] | MIC50 [13] | MIC [32] | MIC [33] | MIC50 [39] | MIC90 [39]
0.12 µg/mL: MIC50 [35] | MIC90 [35] | MIC50 [37] | MIC50 [40] | MIC90 [40]
inactive: MIC50 [26] | MIC90 [26] | MIC50 [28] | MIC90 [28] | MIC50 [29] | MIC90 [29] | MIC50 [32] | MIC90 [32] | MIC50 [33] | MIC90 [33] | MIC50 [20] | MIC90 [20]
0.5 µg/mL: MIC90 [13] | MIC90 [37] | MIC [21] | MIC50 [23]
2 µg/mL: MIC50 [14] | MIC90 [17] | MIC50 [22]
1 µg/mL: MIC90 [3] | MIC90 [5] | MIC90 [6] | MIC90 [11] | MIC90 [12] | MIC50 [17] | MIC90 [23]
98%: Activity [7] | Activity [10] | Activity [13]
93%: Activity [2]
4 µg/mL: MIC90 [14] | MIC90 [22]
